Data taken from patent US20150218654A1, “METHODS FOR PREDICTING MULTIPLE MYELOMA TREATMENT RESPONSE” (INSERM (INSTITUT NATIONAL DE LA SANTÉ ET DE LA RE- CHERCHE …, priority 2012, published 2015).

Test system: HMCLs XG-5, XG-6, XG-7, XG-20 and LP1
Settings: 0.5 μM, 7 days, 5 HMCLs
Procedure: Control cells were cultured in the same conditions without adding drug. […] Biotinylated cRNA was amplified with a double in vitro transcription and hybridized to the human U133 2.0 plus GeneChips, according to the manufacturer's instructions (Affymetrix, Santa Clara, Calif.). Fluorescence intensities were quantified and analyzed using the GECOS software (Affymetrix). Gene expression data were normalized with the MASS algorithm and analyzed with inventor's bioinformatics platforms-RAGE (http://[…] Amazonia (http://amazonia.[…] /) (36)-or SAM (Significance Analysis of Microarrays) software (37). The statistical significance of differences in overall survival between groups of patients was calculated by the log-rank test. Multivariate analysis was performed using the Cox proportional hazards model. Survival curves were plotted using the Kaplan-Meier method. All these analyses have been done with R.2.10.1 (http://www.r-project.org/) and bioconductor version 2.5. Gene annotation and networks were generated through the use of Ingenuity Pathways Analysis (Ingenuity® Systems, Redwood City, Calif.) (38).

## Nc1ncn([C@H]2C[C@H](O)[C@@H](CO)O2)c(=O)n1 [decitabine, 5-Aza-2′-deoxycytidine]
FDR <5%
  number of genes downregulated: 79 genes
  number of genes significantly upregulated: 48 genes
Treated vs control
  Ratio 226719_at (CDNA FLJ34899 fis): 0.53
  Ratio 227755_at (CDNA FLJ42435 fis): 0.53
  Ratio 229969_at (Transcribed locus): 0.41
  Ratio 230570_at (Transcribed locus): 0.37
  Ratio 244623_at (Transcribed locus): 0.39
  Ratio ACRC (238825_at): 25.99
  Ratio ADFP (209122_at): 3.70
  Ratio AIG1 (223136_at): 0.41
  Ratio ALDH1L2 (231202_at): 0.45
  Ratio ARHGAP9 (224451_x_at): 0.38
  Ratio ATP1B1 (201243_s_at): 3.43
  Ratio C6orf48 (220755_s_at): 0.49
  Ratio C10orf57 (222545_s_at): 0.56
  Ratio C12orf5 (219099_at): 2.16
  Ratio C17orf27 (230000_at): 2.41
  Ratio C20orf118 (235964_x_at): 2.12
  Ratio CADPS2 (219572_at): 0.37
  Ratio CBS (212816_s_at): 0.41
  Ratio CBX4 (227558_at): 0.49
  Ratio CCPG1 (214152_at): 0.44
  Ratio COP1 (1552701_a_at): 2.34
  Ratio COPB2 (213500_at): 0.58
  Ratio CORO1A (209083_at): 2.38
  Ratio CT45-2 (235700_at): 30.39
  Ratio CTAGE5 (215930_s_at): 0.30
  Ratio CTBS (218923_at): 0.42
  Ratio DHCR7 (201791_s_at): 0.45
  Ratio DKFZP586A0522 (207761_s_at): 2.97
  Ratio DNAJB9 (1554462_a_at): 0.42
  Ratio DPYD (204646_at): 0.48
  Ratio DYRK4 (212954_at): 0.42
  Ratio EAF2 (219551_at): 0.46
  Ratio EIF2C2 (222294_s_at): 0.52
  Ratio EIF2S2 (208725_at): 0.46
  Ratio ELF4 (31845_at): 1.75
  Ratio ELL2 (226982_at): 0.45
  Ratio EPSTI1 (227609_at): 1.99
  Ratio ERN1 (235745_at): 0.35
  Ratio FKBP11 (219118_at): 0.38
  Ratio FLJ22028 (219802_at): 0.44
  Ratio FNDC3A (202304_at): 0.40
  Ratio G1P2 (205483_s_at): 2.77
  Ratio GALNT3 (203397_s_at): 0.65
  Ratio GLS (203157_s_at): 0.42
  Ratio GNG7 (228831_s_at): 0.33
  Ratio GOLPH3L (218361_at): 0.45
  Ratio GSK3B (226183_at): 0.49
  Ratio GSN (200696_s_at): 3.97
  Ratio H2-ALPHA (216323_x_at): 2.56
  Ratio HBS1L (209314_s_at): 0.53
  Ratio HEXIM1 (202814_s_at): 2.18
  Ratio HIST1H2BG (210387_at): 2.00
  Ratio HLA-DPA1 (211990_at): 1.70
  Ratio HN1 (217755_at): 2.17
  Ratio ID2 (201565_s_at): 2.76
  Ratio IDH1 (1555037_a_at): 0.53
  Ratio IER3 (201631_s_at): 3.97
  Ratio IFI27 (202411_at): 2.84
  Ratio IFI35 (209417_s_at): 1.93
  Ratio IFRD1 (202146_at): 0.51
  Ratio IGF1 (209541_at): 0.43
  Ratio IL21R (221658_s_at): 0.50
  Ratio INHBE (210587_at): 0.55
  Ratio INSIG1 (201625_s_at): 0.34
  Ratio ITGB7 (205718_at): 2.11
  Ratio KIAA0776 (212633_at): 0.49
  Ratio KIAA1509 (215343_at): 2.21
  Ratio KIF21B (204411_at): 0.53
  Ratio LOC220930 (229090_at): 0.45
  Ratio LRP16 (219188_s_at): 0.36
  Ratio MAGEA9 (210437_at): 1.68
  Ratio MAN1A1 (221760_at): 0.43
  Ratio MANEA (222805_at): 0.51
  Ratio MGC15875 (232488_at): 0.55
  Ratio MIRN21 (224917_at): 1.99
  Ratio MLLT11 (211071_s_at): 2.53
  Ratio MTHFD1L (225520_at): 0.41
  Ratio MUC1 (207847_s_at): 2.92
  Ratio MX1 (202086_at): 1.73
  Ratio MYLIP (223129_x_at): 2.00
  Ratio NFE2L1 (214179_s_at): 0.59
  Ratio NMES1 (223484_at): 23.96
  Ratio NMI (203964_at): 1.86
  Ratio NQO1 (201468_s_at): 2.15
  Ratio OAS1 (205552_s_at): 1.65
  Ratio OPN1SW (229549_at): 0.40
  Ratio PARP12 (218543_s_at): 1.92
  Ratio PCK2 (202847_at): 0.47
  Ratio PGM3 (221788_at): 0.49
  Ratio PHGDH (201397_at): 0.36
  Ratio PLAC1 (219702_at): 0.42
  Ratio PPAPDC1B (223569_at): 0.42
  Ratio PSCDBP (209606_at): 0.48
  Ratio PSPH (205194_at): 0.38
  Ratio RECQL (213878_at): 0.44
  Ratio RPL37 (224763_at): 0.35
  Ratio SAMD9 (228531_at): 2.06
  Ratio SCD (200831_s_at): 0.39
  Ratio SEC24D (202375_at): 0.31
  Ratio SEC63 (201915_at): 0.51
  Ratio SEL1L (202061_s_at): 0.56
  Ratio SESN2 (223195_s_at): 0.47
  Ratio SFN (33322_i_at): 4.34
  Ratio SLAMF7 (222838_at): 0.51
  Ratio SLC1A4 (209610_s_at): 0.54
  Ratio SLC1A5 (208916_at): 0.40
  Ratio SLC7A11 (209921_at): 0.41
  Ratio SNTB1 (226438_at): 0.36
  Ratio SP110 (208012_x_at): 2.11
  Ratio SSR3 (217790_s_at): 0.40
  Ratio STAT1 (209969_s_at): 2.55
  Ratio STCH (202558_s_at): 0.47
  Ratio STK17A (202693_s_at): 2.52
  Ratio SULT1A3 (210580_x_at): 2.52
  Ratio TBC1D16 (222116_s_at): 0.70
  Ratio TKTL1 (214183_s_at): 85.24
  Ratio TMEM39A (222690_s_at): 0.46
  Ratio TMEM49 (1569003_at): 2.33
  Ratio TPST2 (204079_at): 2.20
  Ratio TRIB3 (218145_at): 0.41
  Ratio TSC22D3 (208763_s_at): 0.53
  Ratio TUBA2 (210527_x_at): 2.50
  Ratio TUBA3 (209118_s_at): 2.23
  Ratio TUBB2 (204141_at): 5.07
  Ratio TUBE1 (226181_at): 0.38
  Ratio ZNF275 (225382_at): 0.35
  Ratio ZNF706 (227132_at): 0.49
